Test results: PubChem BioAssay (NCI)
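48-hour exposure; five concentrations; linearly interpolated endpoints. TGI: total growth inhibition.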

Experiments:
Assay in all cases: NCI tumour cell line growth inhibition, 48 h
IGROV1 ovarian = test system: IGROV1 ovarian
CCRF-CEM leukemia = test system: CCRF-CEM leukemia
HOP-62 NSCLC = test system: HOP-62 NSCLC
UACC-62 melanoma = test system: UACC-62 melanoma
HOP-92 NSCLC = test system: HOP-92 NSCLC
OVCAR-5 ovarian = test system: OVCAR-5 ovarian
OVCAR-4 ovarian = test system: OVCAR-4 ovarian
LOX IMVI melanoma = test system: LOX IMVI melanoma
DLD-1 colon = test system: DLD-1 colon
M19-MEL melanoma = test system: M19-MEL melanoma
MOLT-4 leukemia = test system: MOLT-4 leukemia
SW-620 colon = test system: SW-620 colon
SF-539 CNS = test system: SF-539 CNS
XF 498 CNS = test system: XF 498 CNS
TK-10 renal = test system: TK-10 renal
NCI-H23 lung = test system: NCI-H23 lung
NCI-H460 lung = test system: NCI-H460 lung
786-0 renal = test system: 786-0 renal
SNB-78 CNS = test system: SNB-78 CNS
SK-MEL-5 melanoma = test system: SK-MEL-5 melanoma
MALME-3M melanoma = test system: MALME-3M melanoma
CAKI-1 renal = test system: CAKI-1 renal
DMS 114 small cell lung = test system: DMS 114 small cell lung
A498 renal = test system: A498 renal
HL-60(TB) leukemia = test system: HL-60(TB) leukemia
KM20L2 colon = test system: KM20L2 colon
SK-OV-3 ovarian = test system: SK-OV-3 ovarian
SNB-75 CNS = test system: SNB-75 CNS
RXF 393 renal = test system: RXF 393 renal
OVCAR-8 ovarian = test system: OVCAR-8 ovarian
HCC-2998 colon = test system: HCC-2998 colon
U251 CNS = test system: U251 CNS
NCI-H226 lung = test system: NCI-H226 lung
SN12C renal = test system: SN12C renal
HCT-116 colon = test system: HCT-116 colon
SK-MEL-28 melanoma = test system: SK-MEL-28 melanoma
HCT-15 colon = test system: HCT-15 colon
K-562 leukemia = test system: K-562 leukemia
A549 NSCLC = test system: A549 NSCLC
NCI-H522 lung = test system: NCI-H522 lung
UO-31 renal = test system: UO-31 renal
COLO 205 colon = test system: COLO 205 colon
M14 melanoma = test system: M14 melanoma
RPMI-8226 leukemia = test system: RPMI-8226 leukemia
LXFL 529 NSCLC = test system: LXFL 529 NSCLC
SNB-19 CNS = test system: SNB-19 CNS
EKVX NSCLC = test system: EKVX NSCLC
SF-268 CNS = test system: SF-268 CNS
RXF-631 renal = test system: RXF-631 renal
ACHN renal = test system: ACHN renal
SK-MEL-2 melanoma = test system: SK-MEL-2 melanoma
UACC-257 melanoma = test system: UACC-257 melanoma
SR leukemia = test system: SR leukemia
HT29 colon = test system: HT29 colon
KM12 colon = test system: KM12 colon
OVCAR-3 ovarian = test system: OVCAR-3 ovarian
DMS 273 small cell lung = test system: DMS 273 small cell lung
SF-295 CNS = test system: SF-295 CNS
HOP-18 NSCLC = test system: HOP-18 NSCLC

Measured: TGI

CC(=O)CC(=O)Nc1ccccc1C(F)(F)F
not listed: UACC-257 melanoma | SR leukemia | HT29 colon | KM12 colon | OVCAR-3 ovarian | DMS 273 small cell lung | SF-295 CNS | HOP-18 NSCLC
> 100 µM: all other assays above

O=S(O)c1cc(Cl)c(O)c(Cl)c1
not listed: IGROV1 ovarian | HOP-92 NSCLC | SW-620 colon | 786-0 renal | SK-MEL-5 melanoma | CAKI-1 renal | KM20L2 colon | OVCAR-8 ovarian | NCI-H226 lung | HCT-15 colon | A549 NSCLC | COLO 205 colon | RPMI-8226 leukemia | DMS 273 small cell lung | SF-295 CNS | HOP-18 NSCLC
> 100 µM: all other assays above

COc1ccc(C2=Nc3ccccc3N=C(SC)C2)cc1
34.6 µM: LOX IMVI melanoma
71.9 µM: NCI-H460 lung
61.9 µM: HOP-92 NSCLC
53.2 µM: K-562 leukemia
43 µM: HL-60(TB) leukemia
63.2 µM: NCI-H522 lung
65.7 µM: UACC-257 melanoma
74.4 µM: HCC-2998 colon
42 µM: CCRF-CEM leukemia
41 µM: SW-620 colon
not listed: RPMI-8226 leukemia
> 100 µM: all other assays above
